According to PMC8550792, “Evolution of kinase polypharmacology across HSP90 drug discovery” (Cell Chemical Biology, 2021):
Each block holds one compound with its values, some of them ahead of it.

Tests used:
Experiment in all cases: biochemical
Assay type in all cases: biochemical
[1] = target: T1, 382 unique human kinases (Homo sapiens, UniProt Q8TDX7); conditions: NEK7; read-out: Control Compound IC50*
T1 construct: purchased Reaction Biology (HotSpot contract assay)

[2] = target: T2, 382 unique human kinases (Homo sapiens, UniProt Q9HC98); conditions: NEK6; read-out: Control Compound IC50*
T2 construct: purchased Reaction Biology (HotSpot contract assay)

[3] = target: T3, 382 unique human kinases (Homo sapiens, UniProt Q6IQ55); conditions: TTBK2; read-out: Control Compound IC50*
T3 construct: purchased Reaction Biology (HotSpot contract assay)

[4] = target: T4, 382 unique human kinases (Homo sapiens, UniProt P27361); conditions: ERK1; read-out: Control Compound IC50*
T4 construct: purchased Reaction Biology (HotSpot contract assay)

[5] = target: T5, 382 unique human kinases (Homo sapiens, UniProt Q9BYP7); conditions: WNK3; read-out: Control Compound IC50*
T5 construct: purchased Reaction Biology (HotSpot contract assay)

[6] = target: T6, 382 unique human kinases (Homo sapiens, UniProt Q92918); conditions: kinase HPK1/MAP4K1; read-out: Control Compound IC50*
T6 construct: purchased Reaction Biology (HotSpot contract assay)

[7] = target: T7, 382 unique human kinases (Homo sapiens, UniProt Q86Y07); conditions: kinase VRK2; read-out: Control Compound IC50*
T7 construct: purchased Reaction Biology (HotSpot contract assay)

[8] = target: T8, 382 unique human kinases (Homo sapiens, UniProt Q86Z02); conditions: HIPK1; read-out: Control Compound IC50*
T8 construct: purchased Reaction Biology (HotSpot contract assay)

[9] = target: T9, 382 unique human kinases (Homo sapiens, UniProt P41279); conditions: COT1/MAP3K8; read-out: Control Compound IC50*
T9 construct: purchased Reaction Biology (HotSpot contract assay)

[10] = target: T10, 382 unique human kinases (Homo sapiens, UniProt Q99986); conditions: VRK1; read-out: Control Compound IC50*
T10 construct: purchased Reaction Biology (HotSpot contract assay)
T10 sequence (Q99986 1-396): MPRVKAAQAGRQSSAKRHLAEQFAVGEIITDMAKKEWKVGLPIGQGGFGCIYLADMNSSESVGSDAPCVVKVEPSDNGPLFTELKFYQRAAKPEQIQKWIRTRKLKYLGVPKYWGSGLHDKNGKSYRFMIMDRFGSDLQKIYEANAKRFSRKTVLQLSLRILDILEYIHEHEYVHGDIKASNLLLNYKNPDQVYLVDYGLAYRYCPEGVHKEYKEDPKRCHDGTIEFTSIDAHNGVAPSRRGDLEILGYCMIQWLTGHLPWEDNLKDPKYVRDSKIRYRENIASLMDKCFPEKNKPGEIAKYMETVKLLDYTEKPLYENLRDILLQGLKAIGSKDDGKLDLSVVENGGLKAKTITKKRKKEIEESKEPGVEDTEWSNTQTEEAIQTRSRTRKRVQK

T2 sequence (Q9HC98 whole entry): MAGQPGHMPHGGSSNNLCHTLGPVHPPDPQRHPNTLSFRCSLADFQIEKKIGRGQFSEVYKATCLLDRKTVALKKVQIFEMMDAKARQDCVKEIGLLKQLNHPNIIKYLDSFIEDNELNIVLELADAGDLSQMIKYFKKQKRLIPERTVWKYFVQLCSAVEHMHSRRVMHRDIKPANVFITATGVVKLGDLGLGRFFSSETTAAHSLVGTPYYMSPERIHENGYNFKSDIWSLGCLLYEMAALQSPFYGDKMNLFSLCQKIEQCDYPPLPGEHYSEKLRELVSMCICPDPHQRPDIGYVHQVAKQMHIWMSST
T6 sequence (Q92918 whole entry): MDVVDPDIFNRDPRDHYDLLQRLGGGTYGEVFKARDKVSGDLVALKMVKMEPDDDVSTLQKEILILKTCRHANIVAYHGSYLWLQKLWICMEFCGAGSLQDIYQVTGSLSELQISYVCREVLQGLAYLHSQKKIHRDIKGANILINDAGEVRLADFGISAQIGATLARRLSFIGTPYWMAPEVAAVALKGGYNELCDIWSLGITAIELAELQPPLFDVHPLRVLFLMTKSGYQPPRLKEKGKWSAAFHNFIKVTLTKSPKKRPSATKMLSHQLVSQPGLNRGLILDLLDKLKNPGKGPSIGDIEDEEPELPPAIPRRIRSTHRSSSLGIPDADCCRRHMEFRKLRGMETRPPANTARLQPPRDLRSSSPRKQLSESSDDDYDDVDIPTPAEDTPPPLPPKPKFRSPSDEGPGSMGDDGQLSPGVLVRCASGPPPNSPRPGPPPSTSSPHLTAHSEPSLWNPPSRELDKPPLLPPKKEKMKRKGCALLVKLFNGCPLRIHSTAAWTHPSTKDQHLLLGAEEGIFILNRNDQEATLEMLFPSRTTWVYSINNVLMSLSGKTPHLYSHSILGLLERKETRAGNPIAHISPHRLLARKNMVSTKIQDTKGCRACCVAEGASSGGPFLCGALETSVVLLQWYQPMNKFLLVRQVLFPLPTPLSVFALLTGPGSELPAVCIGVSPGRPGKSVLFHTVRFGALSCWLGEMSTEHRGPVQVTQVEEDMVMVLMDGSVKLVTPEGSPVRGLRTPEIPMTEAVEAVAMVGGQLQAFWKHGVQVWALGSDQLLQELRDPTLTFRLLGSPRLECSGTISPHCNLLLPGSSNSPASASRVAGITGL
T1 sequence (Q8TDX7 whole entry): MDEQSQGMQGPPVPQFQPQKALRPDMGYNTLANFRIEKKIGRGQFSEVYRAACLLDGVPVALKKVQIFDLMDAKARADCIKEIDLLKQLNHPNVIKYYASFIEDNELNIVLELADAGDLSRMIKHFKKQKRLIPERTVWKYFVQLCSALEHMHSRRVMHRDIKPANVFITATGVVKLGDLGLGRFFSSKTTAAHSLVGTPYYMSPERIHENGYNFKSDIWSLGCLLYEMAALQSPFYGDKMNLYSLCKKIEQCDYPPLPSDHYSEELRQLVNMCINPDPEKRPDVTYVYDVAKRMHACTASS
T8 sequence (Q86Z02 whole entry): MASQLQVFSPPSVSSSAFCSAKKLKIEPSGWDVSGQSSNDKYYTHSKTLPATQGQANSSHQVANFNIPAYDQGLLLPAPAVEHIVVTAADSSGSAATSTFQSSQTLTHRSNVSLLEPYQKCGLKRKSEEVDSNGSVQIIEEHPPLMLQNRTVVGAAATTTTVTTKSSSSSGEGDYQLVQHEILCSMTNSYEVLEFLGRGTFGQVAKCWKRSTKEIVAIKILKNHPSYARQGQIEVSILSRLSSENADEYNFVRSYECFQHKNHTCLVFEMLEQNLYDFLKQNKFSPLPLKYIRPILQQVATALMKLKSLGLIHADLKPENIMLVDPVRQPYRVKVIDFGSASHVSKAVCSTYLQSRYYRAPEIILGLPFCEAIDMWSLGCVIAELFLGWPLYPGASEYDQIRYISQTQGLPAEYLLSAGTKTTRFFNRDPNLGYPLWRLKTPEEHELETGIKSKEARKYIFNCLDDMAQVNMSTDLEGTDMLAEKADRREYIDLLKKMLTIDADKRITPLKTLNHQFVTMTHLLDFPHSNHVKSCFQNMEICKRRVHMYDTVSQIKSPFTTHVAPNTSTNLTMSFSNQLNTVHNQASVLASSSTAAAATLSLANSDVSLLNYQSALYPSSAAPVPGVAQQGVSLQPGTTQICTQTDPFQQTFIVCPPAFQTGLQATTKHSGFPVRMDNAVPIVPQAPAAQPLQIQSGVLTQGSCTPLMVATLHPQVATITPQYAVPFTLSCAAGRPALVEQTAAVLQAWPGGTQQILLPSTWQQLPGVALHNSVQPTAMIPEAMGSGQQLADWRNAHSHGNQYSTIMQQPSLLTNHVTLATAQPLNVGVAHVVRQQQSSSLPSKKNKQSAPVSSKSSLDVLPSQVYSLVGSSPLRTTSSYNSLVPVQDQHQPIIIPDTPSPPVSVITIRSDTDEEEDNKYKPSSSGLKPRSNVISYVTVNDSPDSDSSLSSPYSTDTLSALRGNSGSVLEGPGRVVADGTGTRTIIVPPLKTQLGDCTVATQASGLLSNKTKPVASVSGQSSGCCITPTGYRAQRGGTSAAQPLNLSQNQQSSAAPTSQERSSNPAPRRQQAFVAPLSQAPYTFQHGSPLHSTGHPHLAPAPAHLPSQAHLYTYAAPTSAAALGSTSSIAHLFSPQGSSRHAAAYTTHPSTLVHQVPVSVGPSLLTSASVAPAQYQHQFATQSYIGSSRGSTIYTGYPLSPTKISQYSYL
T9 sequence (P41279 whole entry): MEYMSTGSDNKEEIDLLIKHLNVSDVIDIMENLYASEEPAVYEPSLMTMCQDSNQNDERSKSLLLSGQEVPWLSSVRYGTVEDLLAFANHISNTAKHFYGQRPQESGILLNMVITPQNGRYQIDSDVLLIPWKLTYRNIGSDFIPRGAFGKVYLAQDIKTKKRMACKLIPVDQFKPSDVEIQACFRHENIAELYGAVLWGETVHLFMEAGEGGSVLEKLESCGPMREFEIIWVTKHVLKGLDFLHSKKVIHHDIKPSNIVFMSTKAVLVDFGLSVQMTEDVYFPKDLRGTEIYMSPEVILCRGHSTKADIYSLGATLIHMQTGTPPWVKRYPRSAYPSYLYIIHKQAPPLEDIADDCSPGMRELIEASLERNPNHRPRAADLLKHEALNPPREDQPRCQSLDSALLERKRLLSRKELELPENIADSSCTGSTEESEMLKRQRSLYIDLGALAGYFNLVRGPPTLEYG
T5 sequence (Q9BYP7 whole entry): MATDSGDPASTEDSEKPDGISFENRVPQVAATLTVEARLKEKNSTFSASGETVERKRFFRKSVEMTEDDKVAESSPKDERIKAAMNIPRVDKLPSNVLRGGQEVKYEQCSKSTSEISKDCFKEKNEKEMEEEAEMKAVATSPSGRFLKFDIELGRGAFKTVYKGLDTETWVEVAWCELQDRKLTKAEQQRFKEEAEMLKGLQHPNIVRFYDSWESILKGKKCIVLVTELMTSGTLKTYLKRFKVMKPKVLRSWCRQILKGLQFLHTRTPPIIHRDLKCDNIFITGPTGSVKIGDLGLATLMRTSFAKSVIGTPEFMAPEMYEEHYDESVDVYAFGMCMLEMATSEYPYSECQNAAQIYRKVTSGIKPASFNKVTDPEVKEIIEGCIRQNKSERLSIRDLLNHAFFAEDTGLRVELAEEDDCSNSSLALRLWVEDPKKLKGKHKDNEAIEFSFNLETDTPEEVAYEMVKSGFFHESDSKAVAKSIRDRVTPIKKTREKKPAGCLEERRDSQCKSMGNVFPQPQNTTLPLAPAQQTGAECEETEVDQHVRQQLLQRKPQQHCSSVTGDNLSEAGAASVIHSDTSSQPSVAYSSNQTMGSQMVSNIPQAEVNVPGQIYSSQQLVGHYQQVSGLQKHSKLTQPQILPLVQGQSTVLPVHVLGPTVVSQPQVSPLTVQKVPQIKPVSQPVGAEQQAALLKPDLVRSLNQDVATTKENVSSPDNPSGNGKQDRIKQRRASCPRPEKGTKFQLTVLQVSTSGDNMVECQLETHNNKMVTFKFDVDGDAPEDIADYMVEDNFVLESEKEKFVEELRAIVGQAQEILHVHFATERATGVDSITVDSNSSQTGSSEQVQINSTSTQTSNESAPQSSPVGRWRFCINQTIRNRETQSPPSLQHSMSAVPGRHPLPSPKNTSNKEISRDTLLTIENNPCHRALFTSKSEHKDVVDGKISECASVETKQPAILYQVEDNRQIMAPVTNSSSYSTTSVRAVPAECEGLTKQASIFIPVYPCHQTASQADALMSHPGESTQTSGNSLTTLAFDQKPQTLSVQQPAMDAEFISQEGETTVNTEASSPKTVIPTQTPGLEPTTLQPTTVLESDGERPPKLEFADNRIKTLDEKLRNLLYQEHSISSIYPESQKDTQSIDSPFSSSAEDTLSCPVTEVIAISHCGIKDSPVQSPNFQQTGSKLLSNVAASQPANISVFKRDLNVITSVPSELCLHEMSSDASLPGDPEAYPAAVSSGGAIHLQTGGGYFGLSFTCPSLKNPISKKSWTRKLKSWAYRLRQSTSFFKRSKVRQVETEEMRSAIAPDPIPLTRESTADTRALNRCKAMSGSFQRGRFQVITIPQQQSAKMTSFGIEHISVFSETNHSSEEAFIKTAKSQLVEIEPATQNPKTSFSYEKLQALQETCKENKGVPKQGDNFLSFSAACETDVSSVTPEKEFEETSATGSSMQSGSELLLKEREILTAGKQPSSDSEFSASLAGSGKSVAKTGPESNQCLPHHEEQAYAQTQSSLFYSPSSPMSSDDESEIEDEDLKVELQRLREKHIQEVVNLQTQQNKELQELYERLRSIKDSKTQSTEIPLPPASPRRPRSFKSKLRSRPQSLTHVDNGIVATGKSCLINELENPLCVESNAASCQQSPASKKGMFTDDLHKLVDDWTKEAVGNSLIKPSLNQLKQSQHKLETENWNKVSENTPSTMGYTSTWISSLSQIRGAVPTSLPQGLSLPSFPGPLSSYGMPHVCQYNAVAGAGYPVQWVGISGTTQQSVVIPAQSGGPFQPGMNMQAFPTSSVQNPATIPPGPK

Compound: O=C1Nc2ccc3ncsc3c2/C1=C/c1cnc[nH]1 [PKR Inhibitor]
- IC50 [1]: 12.4 µM
- IC50 [2]: 35.5 µM

Compound: Oc1ccc(-c2nc(-c3ccncc3)c(-c3ccc(F)cc3)[nH]2)cc1 [SB202190]
- IC50 [3]: 9.41 µM

- IC50 [4]: 0.00981 µM
Compound: O=C(Nc1ccc2[nH]nc(-c3ccncc3)c2c1)[C@@H]1CCN(CC(=O)N2CCN(c3ccc(-c4ncccn4)cc3)CC2)C1 [SCH772984]

- IC50 [5]: 3.57 µM
Compound: O=C1NC(=O)c2c1c(-c1ccccc1Cl)cc1[nH]c3ccc(O)cc3c21 [Wee-1 Inhibitor]

- IC50 [6]: 0.0443 µM
- IC50 [7]: 9.05 µM
- IC50 [8]: 0.8 µM
- IC50 [9]: 7.83 µM
- IC50 [10]: 0.528 µM
Compound: Ro-31-8220
